Source: ChEMBL document CHEMBL1201862, “PubChem BioAssay data set” (2004)
The source made the active and inactive calls.

Legend:
[1] = molecular target: T1, NAD-dependent protein deacylase sirtuin-5, mitochondrial (Homo sapiens, UniProt Q9NXA8); assay: SIRT5 desuccinylase inhibitors, dose response, biochemical, fluorescence imaging, cherry-pick, set 5 (AID 720591);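 note: desuccinylation of succinyl peptide AMC substrate read as fluorescence after trypsin release; potency of inhibitors that lower fluorescence and may act on trypsin instead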
[2] = Luminescence Cell-Based Dose Response HTS to Identify Activators of Luciferase Translation or Activity in H4 […] Cells. [Related pubchem assays: 1829 (Project Summary), 1814 (Primary HTS)]; assay type: functional
[3] = test system: H4; assay: Luminescence Cell-Based Dose Response HTS to Identify Activators of 5'UTR Stem-Loop Driven Prion Protein mRNA Translation in H4 Neuroglioblastoma Cells. [Related pubchem assays: 1829 (Project Summary), 1814 (Primary HTS)]; assay type: functional; conditions: Homo sapiens
[4] = molecular target: T2, Ubiquitin-conjugating enzyme E2 N (Homo sapiens, UniProt P61088); assay type: functional;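 note: Dose-response confirmation in a TR-FRET assay detecting UBC13-driven polyubiquitin chain formation, inhibition measured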
T2 sequence (P61088 whole entry): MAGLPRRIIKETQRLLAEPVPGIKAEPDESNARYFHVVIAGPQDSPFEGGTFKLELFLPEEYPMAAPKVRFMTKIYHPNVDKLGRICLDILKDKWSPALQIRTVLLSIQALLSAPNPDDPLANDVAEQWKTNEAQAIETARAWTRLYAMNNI

[5] = molecular target: FAD-linked sulfhydryl oxidase ALR (Homo sapiens, UniProt P55789); assay: inhibitors of human ALR sulfhydryl oxidase, dose response, biochemical, H2O2 detection, luminescence, cherry-pick (AID 493248)
[6] = MDA-MB-231 cell growth inhibition, dose response, cytotoxicity control for RAD54 inhibitor project, CellTiter-Glo luminescence, cherry-pick (AID 651692); assay type: functional, cell-based
[7] = molecular target: T3, DNA repair and recombination protein RAD54-like (Homo sapiens, UniProt Q92698); assay: inhibitors of human RAD54 branch migration, confirmation, biochemical, fluorescence, cherry-picked samples, dose series (AID 651657); assay type: functional
T3 sequence (Q92698 whole entry): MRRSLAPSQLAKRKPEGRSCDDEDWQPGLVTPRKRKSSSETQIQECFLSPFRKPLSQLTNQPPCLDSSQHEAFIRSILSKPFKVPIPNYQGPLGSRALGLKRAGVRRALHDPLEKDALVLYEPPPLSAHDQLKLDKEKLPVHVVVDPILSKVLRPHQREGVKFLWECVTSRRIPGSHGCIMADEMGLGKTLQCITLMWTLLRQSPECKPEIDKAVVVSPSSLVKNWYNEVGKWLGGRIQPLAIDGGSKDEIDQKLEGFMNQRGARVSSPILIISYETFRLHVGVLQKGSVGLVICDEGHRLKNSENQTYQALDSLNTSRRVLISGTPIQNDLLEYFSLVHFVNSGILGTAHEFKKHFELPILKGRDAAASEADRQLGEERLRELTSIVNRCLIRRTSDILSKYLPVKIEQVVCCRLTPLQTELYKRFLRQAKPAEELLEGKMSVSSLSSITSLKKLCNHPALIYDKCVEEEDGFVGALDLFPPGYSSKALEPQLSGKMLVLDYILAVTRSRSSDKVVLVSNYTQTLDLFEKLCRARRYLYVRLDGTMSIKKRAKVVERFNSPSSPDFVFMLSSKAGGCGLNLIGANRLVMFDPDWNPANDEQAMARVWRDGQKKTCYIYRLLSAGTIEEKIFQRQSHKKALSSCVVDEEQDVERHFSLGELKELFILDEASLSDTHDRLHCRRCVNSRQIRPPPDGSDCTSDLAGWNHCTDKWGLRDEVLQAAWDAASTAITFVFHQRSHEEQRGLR

[8] = HepG2 cell cytotoxicity, dose response, cytotoxicity control, ATP luminescence, cherry-pick, set 6 (AID 1053125); assay type: functional, cell-based
[9] = cells; conditions: A549
[10] = cells
[11] = cells; conditions: HEK293
[12] = inhibitors of non-replicating M. tuberculosis, dose response, luciferase, dry powder (AID 651619); assay type: functional; conditions: Mycobacterium tuberculosis
[13] = inhibitors of non-replicating M. tuberculosis, dose response, luciferase, dry powder (AID 651620); assay type: functional; conditions: Mycobacterium tuberculosis
[14] = molecular target: Potassium channel subfamily K member 9 (Homo sapiens, UniProt Q9NPC2); assay: TASK3 (KCNK9) channel inhibitors, thallium flux, SAR follow-up, selectivity assay for TASK1 inhibitor project, cell-based, FluxOR thallium flux, concentration-response (AID 652211); assay type: functional;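 note: potency is for inhibitors of the channel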
[15] = molecular target: Potassium channel subfamily K member 3 (Homo sapiens, UniProt O14649); assay: TASK1 (KCNK3) potassium channel inhibitors, SAR follow-up, CHO cells, FluxOR thallium flux (AID 652212); assay type: functional
[16] = molecular target: Major prion protein (Homo sapiens, UniProt P04156); assay type: functional, cell-based
[17] = cells; remark: listed apart in the source
[18] = molecular target: T1, NAD-dependent protein deacylase sirtuin-5, mitochondrial; assay: SIRT5 deacylase inhibitors, dose response, biochemical, fluorescence imaging, cherry-pick, set 6 (AID 720597)
[19] = ADAM10 inhibitors, peptide cleavage, dose response, biochemical, QFRET (AID 743254);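 note: ADAM10 enzyme with the DM2 quenched FRET peptide as substrate; EDANS fluorescence gain as the protease cuts the substrate; inhibitor potency against ADAM10 proteolytic activity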
[20] = molecular target: Disintegrin and metalloproteinase domain-containing protein 17 (Homo sapiens, UniProt P78536); assay: ADAM17 protease inhibitors, dose response, counter-screen for ADAM10 exosite inhibitor project, biochemical, quenched FRET substrate (AID 743253)
[21] = molecular target: NS3 (Hepatitis C virus, UniProt A3EZJ3); assay: HCV NS3 helicase inhibitor potency, dose response, biochemical, fluorescence polarization, ChemBridge library (AID 743264)
[22] = inhibitors of firefly luciferase expression or activity, dose response, H4 neuroglioma cells, luminescence (AID 1990); assay type: functional, cell-based
[23] = test system: BJ; assay: cytotoxicity toward BJ-TERT fibroblasts, dose response, cell-based, RAS-independent, luminescence (AID 1933); assay type: functional; conditions: Homo sapiens
[24] = Luminescence Cell-Based Dose Response HTS to Identify Inhibitors of 5'UTR Stem-Loop Driven Prion Protein mRNA Translation in H4 Neuroglioblastoma Cells. [Related pubchem assays: 1827 (Project Summary), 1813 (Primary HTS)]; assay type: functional
[25] = inhibitors of SNCA 5'UTR-driven reporter translation, confirmation, H4 neuroglioma cells, luminescence (AID 1988); assay type: functional, cell-based
[26] = test system: BJ; assay: cells; assay type: functional, cell-based; conditions: Homo sapiens
[27] = molecular target: Large T antigen (Simian virus 40, UniProt P03070); assay type: functional, Betapolyomavirus macacae;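 note: Confirmatory-stage PubChem screen for compounds that inhibit SV40 T antigen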
[28] = molecular target: Luciferin 4-monooxygenase (Photinus pyralis, UniProt P08659); assay: firefly luciferase enzyme inhibitors, dose response, biochemical, luminescence (AID 1891)
[29] = Luminescence Cell-Based Dose Confirmation HTS to Identify Inhibitors of Platelet Dense Granule Release. [Related pubchem assays: 1663 (Primary HTS), 1678 (Summary of Project)]; assay type: functional
[30] = test system: BJ; assay: cytotoxicity toward BJ-TERT-LT-ST fibroblasts, dose response, cell-based, RAS-independent, luminescence (AID 1935); assay type: functional; conditions: Homo sapiens;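 note: BJ fibroblasts immortalized with TERT plus LT and ST oncogenes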
[31] = cytotoxicity toward DRD oncogenic fibroblasts, dose response, cell-based, non-viral oncogenic, luminescence (AID 1934); assay type: functional; conditions: Homo sapiens
[32] = molecular target: Nonstructural protein 1 (Influenza A virus, UniProt Q194T2); assay type: functional, Influenza A virus (A/California/07/2009(H1N1))
[33] = test system: BJ; assay: cytotoxicity toward Ras-transformed BJeLR fibroblasts, dose response, cell-based, alamar blue fluorescence, cherrypicked samples (AID 2631); assay type: functional; conditions: Homo sapiens;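 note: confirmatory dose-response assay in RAS-dependent BJ fibroblasts engineered with TERT, LT and ST, with cytotoxicity read by fluorescence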
[34] = molecular target: T4, Rac GTPase-activating protein 1 (Homo sapiens, UniProt Q9H0H5); assay: MgcRacGAP GTPase-activating activity inhibitors, confirmation, biochemical, ADP Hunter fluorescence, primary and confirmatory (AID 624330); assay type: functional
T4 sequence (Q9H0H5 whole entry): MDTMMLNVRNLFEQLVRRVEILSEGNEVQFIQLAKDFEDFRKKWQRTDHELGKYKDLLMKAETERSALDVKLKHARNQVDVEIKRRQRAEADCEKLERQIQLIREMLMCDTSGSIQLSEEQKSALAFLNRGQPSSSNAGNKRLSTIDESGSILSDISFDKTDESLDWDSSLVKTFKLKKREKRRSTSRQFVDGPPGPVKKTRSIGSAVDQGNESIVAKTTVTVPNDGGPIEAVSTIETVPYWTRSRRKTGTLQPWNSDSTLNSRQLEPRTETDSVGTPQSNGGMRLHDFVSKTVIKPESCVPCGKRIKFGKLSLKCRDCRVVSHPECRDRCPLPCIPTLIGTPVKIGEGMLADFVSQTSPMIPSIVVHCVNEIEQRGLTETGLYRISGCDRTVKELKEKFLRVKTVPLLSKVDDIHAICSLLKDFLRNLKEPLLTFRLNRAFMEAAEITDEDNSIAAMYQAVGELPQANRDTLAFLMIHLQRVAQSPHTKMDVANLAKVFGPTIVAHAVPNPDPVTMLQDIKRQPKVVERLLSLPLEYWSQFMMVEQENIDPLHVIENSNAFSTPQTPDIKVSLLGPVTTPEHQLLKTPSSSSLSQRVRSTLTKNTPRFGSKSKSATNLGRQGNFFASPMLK

[35] = HEK293T cytotoxicity, dose response, cytotoxicity control for miR-122 modulator project, cell-based, inhibitor set, cherry-pick, set 2 (AID 720697); assay type: functional
[36] = HEK293T cytotoxicity, dose response, cytotoxicity control for miR-122 modulator project, cell-based, activator set, cherry-pick (AID 720690); assay type: functional;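 note: HEK293T human cells scored for general mammalian cytotoxicity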
[37] = A375 melanoma cell viability loss, dose response, counter-screen for MITF inhibitor project, CellTiter-Glo luminescence, dry powder, set 4 (AID 624364); assay type: functional, cell-based; conditions: A-375;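 note: A375 melanoma cells are MITF independent so this is a counter screen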
[38] = A375 melanoma cell cytotoxicity, dose response, counter-screen for MITF inhibitor project, CellTiter-Glo luminescence, dry powder, set 2 (AID 624489); assay type: functional, cell-based; conditions: A-375;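 note: actives are compounds lowering A375 viability meaning general cytotoxicity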
[39] = Luminescence Cell-Based Dose Confirmation HTS to Identify Activators of 5'UTR Stem-Loop Driven Alpha-Synuclein mRNA Translation in H4 Neuroglioblastoma Cells. [Related pubchem assays: 1829 (Project Summary), 1814 (Primary HTS)]; assay type: functional
[40] = cells; assay type: functional, cell-based
[41] = cells; assay type: functional, cell-based; remark: listed apart in the source
[42] = HepG2 cell cytotoxicity, dose response, cytotoxicity control, ATP luminescence, cherry-pick, activator set 2 (AID 1053143); assay type: functional, cell-based
[43] = molecular target: Oxysterols receptor LXR-beta (Homo sapiens, UniProt P55055); assay type: functional, cell-based;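 note: agonist activity at LXR measured by a cell-based luminescence readout across a dose range, run as a counterscreen for daf-12 agonists; HEK293 cells with Gal4-LXR fusion and GAL4-driven luciferase reporter; potency for activation of Gal4-LXR reporter so compounds are agonists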
[44] = molecular target: Protein disulfide-isomerase (Homo sapiens, UniProt P07237); assay: PDI inhibitors, insulin turbidity readout, confirmation, biochemical, dry powder samples, set 2 (AID 652146)
[45] = MITF Orthogonal Assay: SK-MEL-5 CTG Assay Measured in Cell-Based System Using Plate Reader - 2084-02_Inhibitor_Dose_DryPowder_Activity_Set7.; assay type: functional
[46] = MITF: Counter assay: A375 proliferation Measured in Cell-Based System Using Plate Reader - 2084-03_Inhibitor_Dose_DryPowder_Activity_Set8.; assay type: functional; conditions: A-375
[47] = TRPM1 promoter luciferase reporter signal decrease, dose response, MITF inhibitor project, cell-based, SK-MEL-5, dry powder, set 8 (AID 624430); assay type: functional

COc1ccc(C(C(=O)NC(C)(C)C)N(Cc2ccco2)C(=O)CCC(=O)Nc2cc(C)on2)cc1 (centres undefined)
active: AC50 [1] 23.5 µM

Cc1cc2oc3cc(NCCC4CCCN4C)ccc3c(=O)c2cc1C (centres undefined)
active: EC50 [2] 0.113 µM | EC50 [3] 45.4 µM | AC50 [5] 0.287 µM | AC50 [6] 22.6 µM | AC50 [7] 13.3 µM | AC50 [8] 11.2 µM | AC50 [9] 9.92 µM | AC50 [10] 35 µM | AC50 [11] 12.4 µM
inactive: IC50 [4] > 20 µM

[N-]=[N+]=NCCOCCNC(=O)CCCOc1ccc(-c2nnc(SCc3ccccn3)o2)cc1
active: IC90 [12] 31 µM | IC90 [13] 31 µM

CCOc1ccccc1NC(=O)c1cccc(NC(=O)CC2CCCCC2)c1
active: IC50 [14] 1.92 µM | IC50 [15] 0.217 µM

Cc1nc(SCC(=O)Nc2cc(C(N)=O)cc(C(N)=O)c2)c2c(C)c(C)sc2n1
inactive: IC50 [16] 11.6 µM | IC50 [17] > 138 µM

COCC(=O)NC[C@@H]1N[C@@H](CO)[C@H]1c1ccc(C2=CCCCC2)cc1
inactive: AC50 [18] > 30 µM

COc1cc(OC)c(N(C)S(=O)(=O)c2cccc(C(=O)OCC(=O)c3c[nH]c4ccccc34)c2)cc1Cl
inactive: IC50 [19] > 69.5 µM | IC50 [20] > 69.5 µM

O=C1C=CC(=O)N1c1ccc(Br)cc1[N+](=O)[O-]
inactive: IC50 [21] 22.4 µM

Oc1ccc(/C=N/Nc2nccnc2Cl)c(O)c1
active: EC50 [22] 7.09 µM | EC50 [23] 10.7 µM | EC50 [24] 6.33 µM | EC50 [25] 3.7 µM | EC50 [26] 5.07 µM | IC50 [27] 16.7 µM | EC50 [28] 1.05 µM | EC50 [29] 0.254 µM | EC50 [30] 10.9 µM | EC50 [31] 13.4 µM | IC50 [32] 9.11 µM | EC50 [33] 6.12 µM | IC50 [34] 12.7 µM | AC50 [35] 3.85 µM | AC50 [36] 16.5 µM

CC(=O)N(C)C1=C(N2CCN(C)CC2)C(=O)c2ccccc2C1=O
active: AC50 [37] 12.1 µM | AC50 [38] 5.65 µM

O=C(NCCc1ccccc1)c1cc(-c2ccco2)on1
> 120 µM (not active): EC50 [3]
inactive: EC50 [43] > 67.5 µM
active: EC50 [39] 3.89 µM | EC50 [2] 0.116 µM | EC50 [40] 11.8 µM | EC50 [41] 339 µM | AC50 [42] 26 µM

O=C(Nc1ccccc1)C1(CCOc2ccccc2)CCN(Cc2ccc(O)c(Cl)c2)CC1
active: AC50 [44] 15 µM

CCN1CCN(C2=C(Nc3ccc(I)cc3)C(=O)c3ccccc3C2=O)CC1
active: AC50 [45] 7.26 µM | AC50 [46] 16.8 µM | AC50 [47] 1.48 µM
